The values that follow come from US7071165B2, “LHRH antagonist peptides” (Indiana University Research and Technology Corporation, priority 1995, dated 2006).

The test system of data set [1] is ovulation in female rats. Put plainly: Anti-ovulatory activity (AOA) in vivo assay in rats. Also on record: species or system rat. The conditions noted are these: for AO activity (AOA), in words: rat, in vivo. The procedure, abridged: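 Female rats dosed on proestrus day with test peptide dissolved in 0.1% DMSO. Read-out is the number of rats that ovulate; antagonist activity is defined as blocking ovulation in at least 50% of treated rats at a dose of 5 μg per rat.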

Data set [2] has as its system rat mast cells. Put plainly: Histamine release assay, rat mast cells. The procedure:
The term “histamine-releasing activity”, as used herein, refers to the tendency of a compound to release histamine when administered to a subject. The histamine-releasing activity of a compound can be measured with an in vitro assay (described in more detail, infra). […] Histamine-releasing activity was assayed by the method described in U.S. Pat. No. 4,851,385 to Roeske. Briefly, a suspension of rat mast cells was added to increasing concentrations of an LHRH antagonist peptide and incubated for 15 minutes at 37° C. The buffer contained 25 mM PIPES, pH 7.4, NaCl (119 mM), KCl (5 mM), NaOH (40 mM) glucose (5.6 mM), CaCl2 (1 mM) and 0.1% bovine serum albumin.

Data set [3] deals with ovulation in female rats. Description: Anti-ovulatory activity (AOA) in vivo assay in rats. The settings on record: dose 0.5 μg per rat.
The conditions of data set [4]: cited from earlier work.
The test system of data set [5] is plasma testosterone. Put plainly: Suppression of plasma testosterone, single subcutaneous injection. The data set is classed as in vivo, rat. The settings on record: adult male rats. The procedure: The ability of an LHRH antagonist of the invention to suppress plasma testosterone levels was examined in adult male rats. In one experiment, a single injection of LHRH antagonist was administered subcutaneously at doses of 300 or 1000 μg/kg. […] Testosterone levels returned to normal by 24 hours after the 300 μg/kg dose, but not until 72 hours after the 1000 μg/kg dose.

The subject of data set [6] is plasma testosterone. Description: Suppression of plasma testosterone, eight doses every three hours (FIG. 1). It is filed as in vivo, rat. The conditions noted are these: adult male rats. The method, then: FIG. 1 is a graph depicting plasma testosterone levels (in ng/ml) in adult male rats administered eight subcutaneous injections of the LHRH antagonist #3827, one injection every three hours, at doses of 1, 10 or 100 μg/kg.
In another experiment, the LHRH antagonist #3827 was administered in eight […] doses of 1, 10 or 100 μg/kg, each every three hours, corresponding respectively to 8, 80 or 800 μg/kg/day. The results are shown graphically in FIG. 1.

The test system of data set [7] is plasma testosterone. Description: Suppression of plasma testosterone, continuous subcutaneous infusion via osmotic pump (FIG. 2, FIG. 3). The data set is classed as in vivo, rat. The procedure: FIG. 2 is a graph depicting plasma testosterone levels (in ng/ml) in adult male rats subcutaneously administered the LHRH antagonist #3827 via an osmotic pump. Doses were either 300 μg/kg/day for two weeks, followed by 15 μg/kg/day for an additional two weeks or 1000 μg/kg/day for two weeks, followed by 5, 15 or 50 μg/kg/day for an additional two weeks.
FIG. 3 is a graph depicting the plasma testosterone levels (in ng/ml) in adult male rats subcutaneously administered the LHRH antagonist #3827 via an osmotic pump. Doses were either 30 μg/kg/day for two weeks, followed by 5 μg/kg/day for an additional two weeks, 100 μg/kg/day for two weeks, followed by 5 μg/kg/day for an additional two weeks. or 300 μg/kg/day for two weeks, followed by 0 or 5 μg/kg/day for an additional two weeks.
In another experiment, continuous subcutaneous infusion of the LHRH antagonist # 3827 was achieved through use of an osmotic pump. Doses of 300 or 1000 μg/kg/day (“High Dose”) were administered subcutaneously for two weeks via Alzet osmotic minipumps in each of five male Sprague-Dawley rats. The animals that received 1000 μg/kg/day were then maintained for an additional two weeks with 5, 15 or 50 μg/kg/day (“Low Dose”) before the pumps were removed completely. The results are shown graphically in FIG. 2.

[8] abbreviates: rat mast cells, 15 minutes at 37° C.
Where [9] appears, read: footnote a: run with Nal arg reference 0.11.
The mark [10] stands for this setting: footnote b: run with Nal arg reference 0.14.
Where [11] appears, read: follow up study, FIG. 3, osmotic pump s.c.

“Ac-D-Nal^1, 4-Cl-D-Phe^2, D-Pal^3, D-Met(S^+CH3)^6, D-Ala^10-LHRH.2TFA [Compound 3967]”: the entries for the “AO activity (AOA): rats which ovulate / rats treated” value in data set [1] (dose 0.25 μg per rat) and in data set [3] were 7/8@0.25 and 1/8@0.5, respectively. In addition, the “Histamine release ED50” value in data set [2] (footnote e: run with Nal arg reference 0.1) was determined as 0.38 µg/mL; in data set [2] (footnote f: run with Nal arg reference 0.02) it was 0.15 µg/mL.
`c1ccc2ccccc2c1` [naphthalene]: in data set [4], the “measured log P (octanol/water)” value is given as 3.45.
On to “Ac-D-Nal^1, 4-Cl-D-Phe^2, D-Pal^3, D-Arg^6, Met(S^+Me)^8, D-Ala^10-LHRH.2TFA [Compound 3983]”, for which the figures for the “AO activity (AOA): rats which ovulate / rats treated” value in data set [1] (dose 1 μg per rat) and in data set [3] were 0/8@1.00 and 8/8@0.5, respectively. Further, the “AO activity (AOA), in words” value in data set [1] is given as “high AOA”. Besides, the results for the “Histamine release ED50” value in data set [2] (footnote g: run with Nal arg reference 0.1) and in data set [2] (footnote h: run with Nal arg reference 0.02) were 5.35 µg/mL and 1.32 µg/mL, respectively.
Turning to “Ac-D-Nal^1, 4-Cl-D-Phe^2, D-Trp^3, D-Arg^6, Met(S^+Me)^8, D-Ala^10-LHRH.2TFA [Compound 3878]”, the figures for the “AO activity (AOA): rats which ovulate / rats treated” value in data set [1] (dose 1 μg per rat) and in data set [3] were 2.8@1.0 and 7/8@0.5, respectively.
For `Oc1ccc2ccccc2c1` [β-naphthol], in data set [4], the “measured log P (octanol/water)” value was 2.84.
Turning to “Ac-D-Nal^1, 4-Cl-D-Phe^2, D-Pal^3, D-Lys(Glc)^6-Lys(iPr)^8, D-Ala^10-LHRH.TFA [Compound 3423A]”, the “AO activity (AOA): rats which ovulate / rats treated” value in data set [1] (dose 1 μg per rat) was 2/10@1 μg; in data set [1] (dose 2 μg per rat), 0/10@2 μg; in data set [3], 7/10@0.5 μg. Further, the “Histamine release ED50” value in data set [2] (setting [8]) was found to be 52 µg/mL.
For the molecule “Ac-D-Nal^1, 4-Cl-D-Phe^2, D-Pal^3, D-Arg^6, Orn(COCH2S^+Me2)^8, D-Ala^10, LHRH.2TFA [Compound 3985]”, the “AO activity (AOA): rats which ovulate / rats treated” value in data set [1] (dose 1 μg per rat) was 0/8@1.00; in data set [3] it was 8/8@0.5. The results for the “Histamine release ED50” value in data set [2] (setting [9]) and in data set [2] (setting [10]) were 4.4 µg/mL and 3.86 µg/mL, respectively.
For “Ac-D-Nal^1, 4-Cl-D-Phe^2, D-Pal^3, D-Lys(Ppic)^6, Lys(iPr)^8, D-Ala^10-LHRH.TFA [Compound 3760]”, the “AO activity (AOA): rats which ovulate / rats treated” value in data set [1] (dose 1 μg per rat) is reported as 1/8@1.0; in data set [3] it was 7/8@0.5. Also, in data set [1], the “AO activity (AOA), in words” value is “good AO activity”.
With “Ac-D-Nal^1, 4-Cl-D-Phe^2, D-Pal^3, N-Me-Tyr^5, D-Asn^6, Lys(iPr)^8, D-Ala^10-LHRH.TFA [Compound 3827]”, the “AO activity (AOA): rats which ovulate / rats treated” value in data set [1] (dose 1 μg per rat) is 4/8@1.0. Besides, the “AO activity (AOA), in words” value in data set [1] is recorded as “moderate AO activity”. In addition, the “time until testosterone levels returned to normal” value in data set [5] (single s.c. 300 μg/kg) is at most 24 h; in data set [5] (single s.c. 1000 μg/kg), 72 h. For the same molecule, the plasma testosterone entry in data set [5] (single s.c. injection 300 or 1000 μg/kg, by 6 hours post-administration) is listed as “nearly undetectable levels”; in data set [6] (eight doses of 1 μg/kg, every three hours (8 μg/kg/day)), “significant decrease”; in data set [6] (eight doses of 10 μg/kg, every three hours (80 μg/kg/day)), “Castrate levels”. Also, the “castration during Low Dose maintenance” value in data set [7] (after High Dose two weeks, Low Dose pumps 5, 15 or 50 μg/kg/day, as low as 5 μg/kg/day) is listed as “remained fully castrated”. In data set [7] (by maintenance dose), the “recovery in plasma testosterone following completion of treatment” value is “dose dependent recovery”. In data set [7] (setting [11]), the “dose achieving complete suppression of testosterone to castrate levels (as low as)” value is at most 30 µg/kg/day. Moreover, in data set [7] (setting [11]), the “dose maintaining castrate levels (as low as)” value is at most 5 µg/kg/day. In addition, the “time to castrate levels of testosterone” value in data set [7] (male Sprague-Dawley rats, osmotic pump s.c., initial dose 300 or 1000 μg/kg/day) is listed as at most 7 days. In data set [7] (osmotic pump s.c.), the “castration response during chronic treatment” value is “no apparent “castration response””. Besides, in data set [7] (rat, in vivo), the “recovery of testosterone levels following pump removal” value is recorded as “complete within two weeks”.
Take “Ac-D-Nal^1, 4-Cl-D-Phe^2, D-Pal^3, D-Lys(OTac)^6, Lys(iPr)^8, D-Ala^10-LHRH.TFA [Compound 3508]”: the results for the “AO activity (AOA): rats which ovulate / rats treated” value in data set [1] (dose 1 μg per rat) and in data set [3] were 0/8@1 μg and 6/8@0.5 μg, respectively.
Take “Ac-D-Nal^1, 4-Cl-D-Phe^2, D-Pal^3, D-Pal(Bzl)^6, Lys(iPr)^8, D-Ala^10-LHRH.TFA [Compound 3429]”: the “AO activity (AOA): rats which ovulate / rats treated” value is 0/8@1 μg in data set [1] (dose 1 μg per rat) and 4/8@0.5 μg in data set [3]. Moreover, in data set [2] (setting [8]), the “Histamine release ED50” value was found to be 6.0 µg/mL.
Consider “Ac-D-Nal^1, 4-Cl-D-Phe^2, D-Pal^3, D-Lys(Imdac)^6, Lys(iPr)^8, D-Ala^10-LHRH.TFA [Compound 3741]”, for which the figures for the “AO activity (AOA): rats which ovulate / rats treated” value in data set [1] (dose 1 μg per rat) and in data set [3] were 1/8@1.0 and 6/8@0.5, respectively. For the same molecule, in data set [1], the “AO activity (AOA), in words” value is given as “good AO activity”.
The like results for “Ac-D-Nal^1, 4-Cl-D-Phe^2, D-Trp^3, D-Met(S^+Me)^6, D-Ala^10-LHRH.2TFA [Compound 3879]” were, in that order, 0/8@1.0, 6/8@0.5 and “high AOA”.
“Ac-D-Nal^1, 4-Cl-D-Phe^2, D-Pal^3, Pal^5, D-Pal(iPr)^6, Lys(iPr)^8, D-Ala^10-LHRH.TFA [Compound 3430]”: in data set [1] (dose 1 μg per rat), the “AO activity (AOA): rats which ovulate / rats treated” value was 3/8@1 μg. Besides, the “Histamine release ED50” value in data set [2] (setting [8]) was 10 µg/mL.
For “Ac-L-(or D)-Ada-Ala^1, 4-Cl-D-Phe^2, D-Pal^3, D-Cit^6-Lys(iPr)^8, D-Ala^10-LHRH.TFA [Compound 3369]”, the “AO activity (AOA): rats which ovulate / rats treated” value in data set [1] (dose 5 μg per rat) is reported as 7/8@5 μg. For the same molecule, in data set [2], the “Histamine-releasing activity, in words” value is listed as “low histamine release”. Besides, the “Histamine release ED50” value in data set [2] (setting [8]) stood at 93 µg/mL.
As to “Ac-D-Nal^1, 4-Cl-D-Phe^2, D-Pal^3, 4-Cl-Phe^5, D-Pal(iPr)^6, Lys(iPr)^8, D-Ala^10-LHRH.2TFA [Compound 3851]”, the “AO activity (AOA): rats which ovulate / rats treated” value is 0/8@1.0 in data set [1] (dose 1 μg per rat) and 6/8@0.5 in data set [3]. For the same molecule, in data set [1], the “AO activity (AOA), in words” value is listed as “unexpectedly active”. The “Histamine release ED50” value in data set [2] (setting [9]) turned out to be 4.1 µg/mL; in data set [2] (setting [10]), 5.4 µg/mL.
